Source: patent US8952026B2, “PRMT1 inhibitors and uses thereof” (Epizyme, Inc., priority 2013, dated 2015)

biological target: T1, full-length human GST-tagged PRMT1 (Homo sapiens, UniProt Q99873); experiment: PRMT1 Biochemical Assay (3H-SAM Flashplate, histone H4 peptide substrate)
T1 construct: GST-tagged PRMT1; made in house; host or cells: High Five insect cells (baculovirus, pFastBacI)
Description: General Materials. S-adenosylmethionine (SAM), S-adenosylhomocysteine (SAH), bicine, Tween20, dimethylsulfoxide (DMSO), bovine skin gelatin (BSG), and Tris(2-carboxyethyl)phosphine hydrochloride solution (TCEP) were purchased from Sigma-Aldrich at the highest level of purity possible. ^3H-SAM was purchase from American Radiolabeled Chemicals with a specific activity of 80 Ci/mmol. 384-well streptavidin Flashplates were purchased from PerkinElmer.
Protein Expression. Recombinant baculovirus were generated according to Bac-to-Bac kit instructions (Life Technologies). Protein over-expression was accomplished by infecting exponentially growing High Five insect cell culture at 1.5×10^6cell/ml with 1:100 ratio of virus. Infections were carried out at 27° C. for 48 hours, harvested by centrifugation, and stored at −80° C. for purification.
Protein Purification. […] GST-tagged PRMT1 was eluted with 50 mM Tris, 2 mM glutathione, pH 7.8, dialysed in buffer A and concentrated to 1 mg/mL.
General Procedure for PRMT1 Enzyme Assays on Peptide Substrates. The assays were all performed in a buffer consisting of 20 mM Bicine (pH=7.6), 1 mM TCEP, 0.005% BSG, and 0.002% Tween 20, prepared on the day of use. […] DMSO (1 ul) was added to Columns 11, 12, 23, 24, rows A-H for the maximum signal control and 1 ul of SAH, a known product and inhibitor of PRMT1, was added to columns 11, 12, 23, 24, rows I-P for the minimum signal control. A cocktail (40 ul) containing the PRMT1 enzyme was added by Multidrop Combi (Thermo-Fisher). The compounds were allowed to incubate with PRMT1 for 30 min at room temperature, then a cocktail (10 ul) containing SAM and peptide was added to initiate the reaction (final volume=51 ul). […] The assays were stopped by the addition of non-radiolabeled SAM (10 ul) to a final concentration of 300 uM, which dilutes the ^3H-SAM to a level where its incorporation into the peptide substrate is no longer detectable. 50 ul of the reaction in the 384-well polypropylene plate was then transferred to a 384-well Flashplate and the biotinylated peptides were allowed to bind to the streptavidin surface for at least 1 hour before being washed once with 0.1% Tween20 in a Biotek ELx405 plate washer. The plates were then read in a PerkinElmer TopCount plate reader to measure the quantity of ^3H-labeled peptide bound to the Flashplate surface, measured as disintegrations per minute (dpm) or alternatively, referred to as counts per minute (cpm).
Where dpm=disintegrations per minute, cmpd=signal in assay well, and min and max are the respective minimum and maximum signal controls.
Where top and bottom are the normally allowed to float, but may be fixed at 100 or 0 respectively in a 3-parameter fit. The Hill Coefficient normally allowed to float but may also be fixed at 1 in a 3-parameter fit. Y is the % inhibition and X is the compound concentration.

T1 sequence (Q99873 with tags, fused parts or gaps): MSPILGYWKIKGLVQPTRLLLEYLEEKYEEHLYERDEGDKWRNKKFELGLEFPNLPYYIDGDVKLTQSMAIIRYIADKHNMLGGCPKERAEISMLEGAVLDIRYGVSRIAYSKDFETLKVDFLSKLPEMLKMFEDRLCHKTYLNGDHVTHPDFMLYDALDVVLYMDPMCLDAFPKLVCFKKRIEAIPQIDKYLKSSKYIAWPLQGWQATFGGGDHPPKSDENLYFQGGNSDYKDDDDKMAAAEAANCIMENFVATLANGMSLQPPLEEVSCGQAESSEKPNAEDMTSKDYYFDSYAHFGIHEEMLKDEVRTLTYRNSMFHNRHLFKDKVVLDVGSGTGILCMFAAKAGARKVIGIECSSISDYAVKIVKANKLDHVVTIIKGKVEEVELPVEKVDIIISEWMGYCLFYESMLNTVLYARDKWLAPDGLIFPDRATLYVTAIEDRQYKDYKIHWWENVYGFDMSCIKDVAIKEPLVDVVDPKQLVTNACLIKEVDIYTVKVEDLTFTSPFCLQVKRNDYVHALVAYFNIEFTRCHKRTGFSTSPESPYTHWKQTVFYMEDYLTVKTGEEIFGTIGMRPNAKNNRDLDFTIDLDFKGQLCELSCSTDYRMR

Structure (SMILES) | IC50
CNCCN(C)Cc1c[nH]nc1-c1cccc(C(F)(F)F)c1 [Compound 1] | 101 to 1000 nM
CN(CCN)Cc1c[nH]nc1-c1cc(C(F)(F)F)cc(C(F)(F)F)c1 [Compound 2] | 101 to 1000 nM
CN(CCN)Cc1c[nH]nc1-c1ccc(Cl)c(C(F)(F)F)c1 [Compound 3] | < 100 nM
CN(CCN)Cc1c[nH]nc1-c1ccc(F)c(C(F)(F)F)c1 [Compound 4] | < 100 nM
CC(C)Oc1ccc(-c2n[nH]cc2CN(C)CCN)cc1C(F)(F)F [Compound 5] | < 100 nM
CC(C)Oc1cc(-c2n[nH]cc2CN(C)CCN)cc(C(F)(F)F)c1 [Compound 6] | < 100 nM
CN(CCN)Cc1n[nH]cc1-c1cc(C(F)(F)F)cc(C(F)(F)F)c1 [Compound 7] | 1010 to 3000 nM
CC(C)Oc1ccc(-c2c[nH]nc2CN(C)CCN)cc1C(F)(F)F [Compound 8] | < 100 nM
CNCCN(C)Cc1c[nH]nc1-c1ccc(OCCC(C)C)c(C(F)(F)F)c1 [Compound 9] | < 100 nM
CNCCN(C)Cc1c[nH]nc1-c1ccc(OCC(C)C)c(C(F)(F)F)c1 [Compound 10] | < 100 nM
CCCOc1ccc(-c2n[nH]cc2CN(C)CCNC)cc1C(F)(F)F [Compound 11] | < 100 nM
CNCCN(C)Cc1c[nH]nc1-c1cc(OCCC(C)C)cc(C(F)(F)F)c1 [Compound 12] | < 100 nM
CNCCN(C)Cc1c[nH]nc1-c1ccc(OCCCOC)c(C(F)(F)F)c1 [Compound 13] | < 100 nM
CNCCN(C)Cc1c[nH]nc1-c1ccc(OCCOC)c(C(F)(F)F)c1 [Compound 14] | < 100 nM
CNCCN(C)Cc1c[nH]nc1-c1cc(OCC(C)C)cc(C(F)(F)F)c1 [Compound 15] | < 100 nM
CNCCN(C)Cc1c[nH]nc1-c1cc(OCCOC)cc(C(F)(F)F)c1 [Compound 16] | < 100 nM
CNCCN(C)Cc1n[nH]cc1-c1ccc(OCCC(C)C)c(C(F)(F)F)c1 [Compound 17] | < 100 nM
CNCCN(C)Cc1n[nH]cc1-c1ccc(OCC(C)C)c(C(F)(F)F)c1 [Compound 18] | < 100 nM
CCCOc1cc(-c2n[nH]cc2CN(C)CCNC)cc(C(F)(F)F)c1 [Compound 19] | < 100 nM
CNCCN(C)Cc1n[nH]cc1-c1ccc(OCCCOC)c(C(F)(F)F)c1 [Compound 20] | < 100 nM
CNCCN(C)Cc1n[nH]cc1-c1ccc(OCCOC)c(C(F)(F)F)c1 [Compound 21] | < 100 nM
CNCCN(C)Cc1n[nH]cc1-c1cc(OCCC(C)C)cc(C(F)(F)F)c1 [Compound 22] | < 100 nM

Structure (SMILES) | IC50
CN(CCN)Cc1c[nH]nc1-c1ccc(Oc2ccccc2)c(C(F)(F)F)c1 [Compound 23] | < 100 nM
CNCCN(C)Cc1c[nH]nc1-c1cc(OCCCOC)cc(C(F)(F)F)c1 [Compound 24] | < 100 nM
CNCCN(C)Cc1c[nH]nc1-c1cc(Cl)c(OC(C)C)c(C(F)(F)F)c1 [Compound 25] | < 100 nM
CN(CCN)Cc1n[nH]cc1-c1ccc(Oc2ccccc2)c(C(F)(F)F)c1 [Compound 26] | < 100 nM
CNCCN(C)Cc1n[nH]cc1-c1cc(OCCCOC)cc(C(F)(F)F)c1 [Compound 27] | 101 to 1000 nM
CCCOc1ccc(-c2c[nH]nc2CN(C)CCNC)cc1C(F)(F)F [Compound 28] | < 100 nM
CNCCN(C)Cc1n[nH]cc1-c1cc(OCC(C)C)cc(C(F)(F)F)c1 [Compound 29] | < 100 nM
CNCCN(C)Cc1n[nH]cc1-c1cc(OCCOC)cc(C(F)(F)F)c1 [Compound 30] | 101 to 1000 nM
CCCOc1cc(-c2c[nH]nc2CN(C)CCNC)cc(C(F)(F)F)c1 [Compound 31] | 101 to 1000 nM
CNCCN(C)Cc1n[nH]cc1-c1cc(C(O)C(C)C)cc(C(F)(F)F)c1 (stereo not shown) [Compound 32] | 1010 to 3000 nM
CNCCN(C)Cc1n[nH]cc1-c1cc(Cl)c(OC(C)C)c(C(F)(F)F)c1 [Compound 33] | < 100 nM
CNCCN(C)Cc1c[nH]nc1-c1ccc(CC(C)C)c(C(F)(F)F)c1 [Compound 34] | < 100 nM
CNCCN(C)Cc1c[nH]nc1-c1cc(Cl)c(OCC2CCC2)c(C(F)(F)F)c1 [Compound 35] | < 100 nM
CNCCN(C)Cc1c[nH]nc1-c1cc(Oc2ccccc2)cc(C(F)(F)F)c1 [Compound 36] | < 100 nM
CNCCN(C)Cc1c[nH]nc1-c1cc(OCc2ccccc2)cc(C(F)(F)F)c1 [Compound 37] | < 100 nM
CNCCN(C)Cc1c[nH]nc1-c1cc(Oc2ccncc2)cc(C(F)(F)F)c1 [Compound 38] | 101 to 1000 nM
CNCCN(C)Cc1c[nH]nc1-c1cc(OC2CCCCC2)cc(C(F)(F)F)c1 [Compound 39] | < 100 nM
CC(C)CCOc1cc(-c2n[nH]cc2CN(C)CCN)cc(C(F)(F)F)c1Cl [Compound 40] | 101 to 1000 nM
CNCCN(C)Cc1c[nH]nc1-c1cc(Cl)c(OCC2CC2)c(C(F)(F)F)c1 [Compound 41] | < 100 nM
CNCCN(C)Cc1c[nH]nc1-c1cc(OCC2CCC2)cc(C(F)(F)F)c1 [Compound 44] | < 100 nM
CNCCN(C)Cc1c[nH]nc1-c1cc(OCC2CCCC2)cc(C(F)(F)F)c1 [Compound 45] | < 100 nM
CNCCN(C)Cc1c[nH]nc1-c1cc(OCC2CCOCC2)cc(C(F)(F)F)c1 [Compound 46] | < 100 nM

Structure (SMILES) | IC50
CCC(CC)Oc1cc(-c2n[nH]cc2CN(C)CCNC)cc(C(F)(F)F)c1 [Compound 47] | < 100 nM
CNCCN(C)Cc1c[nH]nc1-c1cc(OCCCC(F)(F)F)cc(C(F)(F)F)c1 [Compound 48] | < 100 nM
CNCCN(C)Cc1c[nH]nc1-c1cc(OCCCC(C)=O)cc(C(F)(F)F)c1 [Compound 49] | < 100 nM
CNCCN(C)Cc1c[nH]nc1-c1cc(OCCc2ccccc2OC)cc(C(F)(F)F)c1 [Compound 50] | < 100 nM
CNCCN(C)Cc1c[nH]nc1-c1cc(Oc2cccnc2)cc(C(F)(F)F)c1 [Compound 51] | < 100 nM
CNCCN(C)Cc1c[nH]nc1-c1cc(Oc2ccccn2)cc(C(F)(F)F)c1 [Compound 52] | < 100 nM
CNCCN(C)Cc1c[nH]nc1-c1cc(Oc2cncnc2)cc(C(F)(F)F)c1 [Compound 53] | 101 to 1000 nM
CNCCN(C)Cc1c[nH]nc1-c1cc(OCCC(C)C)c(Cl)c(C(F)(F)F)c1 [Compound 54] | 101 to 1000 nM
CNCCN(C)Cc1c[nH]nc1-c1cc(OCCOC)c(Cl)c(C(F)(F)F)c1 [Compound 55] | 101 to 1000 nM
COCCOc1cc(-c2n[nH]cc2CN(C)CCN)cc(C(F)(F)F)c1Cl [Compound 56] | 101 to 1000 nM
CNCCN(C)Cc1c[nH]nc1-c1cc(OCCCOC)c(Cl)c(C(F)(F)F)c1 [Compound 57] | < 100 nM
CNCCN(C)Cc1c[nH]nc1-c1cc(C)c(OCC2CCC2)c(C(F)(F)F)c1 [Compound 58] | < 100 nM
CNCCN(C)Cc1c[nH]nc1-c1cc(C)c(OC2CCOCC2)c(C(F)(F)F)c1 [Compound 59] | < 100 nM
CNCCN(C)Cc1c[nH]nc1-c1cc(OCC(F)(F)F)cc(C(F)(F)F)c1 [Compound 60] | < 100 nM
CNCCN(C)Cc1c[nH]nc1-c1cc(OCCCC(=O)OC)cc(C(F)(F)F)c1 [Compound 61] | < 100 nM
CNCCN(C)Cc1c[nH]nc1-c1cc(CCC(C)C)cc(C(F)(F)F)c1 [Compound 62] | < 100 nM
CC(C)CCc1cc(-c2n[nH]cc2CN(C)CCN)cc(C(F)(F)F)c1 [Compound 63] | < 100 nM
CNCCN(C)Cc1c[nH]nc1-c1cc(OCCOC)c(F)c(C(F)(F)F)c1 [Compound 64] | < 100 nM
CNCCN(C)Cc1c[nH]nc1-c1cc(C)c(OCC2CCOCC2)c(C(F)(F)F)c1 [Compound 65] | < 100 nM
CNCCN(C)Cc1c[nH]nc1-c1cc(C)c(OC2COC2)c(C(F)(F)F)c1 [Compound 66] | < 100 nM
